The record followed here is patent US7910751B2, “Heterocyclidene acetamide derivative” (Mochida Pharmaceutical Co., Ltd., priority 2005, dated 2011).

In this assay the target is T1, human TRPV1 (Homo sapiens, UniProt Q8NER1).
T1 construct: expressed in transfected cells; host or cells: CHO-K1
T1 sequence (Q8NER1 whole entry): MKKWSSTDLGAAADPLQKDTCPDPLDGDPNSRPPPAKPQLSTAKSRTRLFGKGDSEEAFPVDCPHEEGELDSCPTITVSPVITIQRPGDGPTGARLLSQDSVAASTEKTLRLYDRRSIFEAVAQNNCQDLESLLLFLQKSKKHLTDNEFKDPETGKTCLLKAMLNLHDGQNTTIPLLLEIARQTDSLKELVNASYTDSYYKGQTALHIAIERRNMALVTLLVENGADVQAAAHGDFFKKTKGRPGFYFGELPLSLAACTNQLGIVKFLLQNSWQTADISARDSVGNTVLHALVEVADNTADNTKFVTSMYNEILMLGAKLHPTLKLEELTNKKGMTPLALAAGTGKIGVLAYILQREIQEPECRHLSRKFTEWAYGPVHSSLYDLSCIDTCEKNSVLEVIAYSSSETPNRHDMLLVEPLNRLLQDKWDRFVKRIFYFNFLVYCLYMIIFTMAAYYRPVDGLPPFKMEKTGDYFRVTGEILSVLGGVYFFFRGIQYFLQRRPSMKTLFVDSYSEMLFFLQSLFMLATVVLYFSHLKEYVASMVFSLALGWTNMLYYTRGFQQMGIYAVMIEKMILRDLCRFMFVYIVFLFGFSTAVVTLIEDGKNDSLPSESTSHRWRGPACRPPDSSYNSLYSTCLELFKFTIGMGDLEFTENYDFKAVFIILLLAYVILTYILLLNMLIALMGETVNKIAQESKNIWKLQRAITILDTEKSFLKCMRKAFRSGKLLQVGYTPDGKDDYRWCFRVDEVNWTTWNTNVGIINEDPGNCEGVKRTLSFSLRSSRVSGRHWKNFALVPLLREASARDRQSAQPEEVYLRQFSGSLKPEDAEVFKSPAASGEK
The assay is described as follows: Measurement of capsaicin-induced Ca influx in human TRPV1 transformed CHO cell line using FDSS-6000. Format: cell-based. As to conditions: concentration at which the capsaicin concentration-reaction curve is shifted two times to the right, human TRPV1 transformed CHO cells.
Take `CC1(C(=O)N2CC/C(=C\C(=O)Nc3cccc4c3CC(O)CC4)c3ccc(C(F)(F)F)cc32)CC1` (centres unmarked) [Example 89, (E)-2-(1-(1-methylcyclopropanecarbonyl)-7-trifluoromethyl-2,3-dihydroquinolin-4(1H)-ylidene)-N-(7-hydroxy-5,6,7,8-tetrahydronaphthalen-1-yl)acetamide]: the “A2 VALUE” is on record as “A (compounds of the present invention having an A2 value of less than 100 nM are represented by A)”.

For the compound `O=C(/C=C1\CCCOc2cc(C(F)(F)F)ccc21)Nc1cccc2[nH]ncc12` [Example 253, (E)-2-(8-trifluoromethyl-3,4-dihydrobenzo[b]oxepin-5(2H)-ylidene)-N-(1H-indazol-4-yl)acetamide], the “A2 VALUE” is “A (compounds of the present invention having an A2 value of less than 100 nM are represented by A)”.

In the case of `CC(=O)OC1CCc2c(NC(=O)/C=C3\CCCOc4cc(C(F)(F)F)ccc43)cccc21` (centres unmarked) [Example 161, (E)-2-(8-trifluoromethyl-3,4-dihydrobenzo[b]oxepin-5(2H)-ylidene)-N-(indan-1-acetoxy-4-yl)acetamide], the “A2 VALUE” is “B (compounds having an A2 value of 100 nM or more are represented by B)”.

Take `O=C(/C=C1\CCCOc2cc(C(F)(F)F)ccc21)NCCc1cccc2c1CC(O)CC2` (centres unmarked) [Example 226, (E)-2-(8-trifluoromethyl-3,4-dihydrobenzo[b]oxepin-5(2H)-ylidene)-N-(2-(7-hydroxy-5,6,7,8-tetrahydronaphthalen-1-yl)ethyl)acetamide]: the “A2 VALUE” was “A (compounds of the present invention having an A2 value of less than 100 nM are represented by A)”.

In the case of `Cc1sc2cnccc2c1NC(=O)/C=C1\CCOc2cc(C(F)(F)F)ccc21` [Example 204, (E)-2-(7-trifluoromethyl-chroman-4-ylidene)-N-(2-methylthieno[2,3-c]pyridin-3-yl)acetamide], the “A2 VALUE” is “A (compounds of the present invention having an A2 value of less than 100 nM are represented by A)”.

In the case of `O=C(/C=C1\CCOc2cc(OC(F)(F)F)ccc21)Nc1cccc2c1CC(O)CN2` (centres unmarked) [Example 211, (E)-2-(7-trifluoromethoxy-chroman-4-ylidene)-N-(3-hydroxy-1,2,3,4-tetrahydroquinolin-5-yl)acetamide], the “A2 VALUE” is reported as “A (compounds of the present invention having an A2 value of less than 100 nM are represented by A)”.

Take `O=C(/C=C1\CCCOc2cc(C(F)(F)F)ccc21)Nc1cccc2c1CC(O)CO2` (centres unmarked) [Example 183, (E)-2-(8-trifluoromethyl-3,4-dihydrobenzo[b]oxepin-5(2H)-ylidene)-N-(3-hydroxy-chroman-5-yl)acetamide]: the “A2 VALUE” is “A (compounds of the present invention having an A2 value of less than 100 nM are represented by A)”.

Regarding `O=C(/C=C1\CCCOc2cc(C(F)(F)F)ccc21)NCc1ccccc1N1CCOCC1` [Example 36, (E)-2-(8-trifluoromethyl-3,4-dihydrobenzo[b]oxepin-5(2H)-ylidene)-N-(2-morpholinophenyl)methyl-acetamide], the “A2 VALUE” was “B (compounds having an A2 value of 100 nM or more are represented by B)”.

Consider `O=C(/C=C1\CCCOc2cc(C(F)(F)F)ccc21)NCc1ccc(-c2csnn2)cc1` [Example 37, (E)-2-(8-trifluoromethyl-3,4-dihydrobenzo[b]oxepin-5(2H)-ylidene)-N-(4-(1,2,3-thiadiazolo-4-yl)phenylmethyl)acetamide], for which the “A2 VALUE” is “B (compounds having an A2 value of 100 nM or more are represented by B)”.

Take `O=C(/C=C1\CCCOc2cc(C(F)(F)F)ccc21)Nc1ccc2c(c1)NCCC2` [Example 167, (E)-2-(8-trifluoromethyl-3,4-dihydrobenzo[b]oxepin-5(2H)-ylidene)-N-(1,2,3,4-tetrahydroquinolin-7-yl)acetamide]: the “A2 VALUE” is on record as “A (compounds of the present invention having an A2 value of less than 100 nM are represented by A)”.

With `O=C(/C=C1\CCN(C(=O)C2CCC(F)C2)c2cc(C(F)(F)F)ccc21)Nc1cccc2c1CC(O)CC2` (centres unmarked) [Example 88, (E)-2-(1-(3-fluorocyclopentanecarbonyl)-7-trifluoromethyl-2,3-dihydroquinolin-4(1H)-ylidene)-N-(7-hydroxy-5,6,7,8-tetrahydronaphthalen-1-yl)acetamide], the “A2 VALUE” is “A (compounds of the present invention having an A2 value of less than 100 nM are represented by A)”.

Consider `O=C(/C=C1\CCN(c2cccnc2)c2cc(C(F)(F)F)ccc21)Nc1ccc2cccnc2c1` [Example 58, (E)-2-(7-trifluoromethyl-2,3-dihydro-1-(pyridin-3-yl)quinolin-4(1H)-ylidene)-N-(quinolin-7-yl)acetamide], for which the “A2 VALUE” is on record as “A (compounds of the present invention having an A2 value of less than 100 nM are represented by A)”.

Regarding `O=C(/C=C1\CCCN(CC2CCCC2)c2cc(C(F)(F)F)ccc21)Nc1ccc2cccnc2c1` [Example 197, (E)-2-(1-cyclopentylmethyl-8-trifluoromethyl-1,2,3,4-tetrahydro-5H-benzo[b]azepin-5-ylidene)-N-(quinolin-7-yl)acetamide], the “A2 VALUE” is “A (compounds of the present invention having an A2 value of less than 100 nM are represented by A)”.

For `CCC(F)(F)C(=O)N1CC/C(=C\C(=O)Nc2cccc3c2CC(O)C(=O)N3)c2ccc(C(F)(F)F)cc21` (centres unmarked) [Example 185, (E)-2-(1-(2,2-difluorobutanoyl)-7-trifluoromethyl-2,3-dihydroquinolin-4(1H)-ylidene)-N-(3-hydroxy-2-oxo-1,2,3,4-tetrahydroquinolin-5-yl)acetamide], the “A2 VALUE” is given as “A (compounds of the present invention having an A2 value of less than 100 nM are represented by A)”.

For `O=C(/C=C1\CCCOc2cc(C(F)(F)F)ccc21)NC1CCc2cccnc2C1` (centres unmarked) [Example 10, (E)-2-(8-trifluoromethyl-3,4-dihydrobenzo[b]oxepin-5(2H)-ylidene)-N-(5,6,7,8-tetrahydroquinolin-7-yl)acetamide], the “A2 VALUE” is “A (compounds of the present invention having an A2 value of less than 100 nM are represented by A)”.

On to `CC(C)CC(=O)N1CC/C(=C\C(=O)Nc2cccc3c2CC(O)CC3)c2ccc(C(F)(F)F)cc21` (centres unmarked) [Example 87, (E)-2-(1-(3-methylbutanoyl)-7-trifluoromethyl-2,3-dihydroquinolin-4(1H)-ylidene)-N-(7-hydroxy-5,6,7,8-tetrahydronaphthalen-1-yl)acetamide], for which the “A2 VALUE” is “A (compounds of the present invention having an A2 value of less than 100 nM are represented by A)”.

For the compound `CC(C)(C)c1ccc2c(c1)OCC/C2=C\C(=O)Nc1ccc2cccnc2c1` [Example 5, (E)-2-(7-tert-butyl-chroman-4-ylidene)-N-(quinolin-7-yl)acetamide], the “A2 VALUE” is “A (compounds of the present invention having an A2 value of less than 100 nM are represented by A)”.

Turning to `O=C(/C=C1\CCCOc2cc(C(F)(F)F)ccc21)Nc1ccc2c(c1)OCO2` [Example 144, (E)-2-(8-trifluoromethyl-3,4-dihydrobenzo[b]oxepin-5(2H)-ylidene)-N-(1,3-benzodioxol-5-yl)acetamide], the “A2 VALUE” was “A (compounds of the present invention having an A2 value of less than 100 nM are represented by A)”.

As to `O=C(/C=C1\CCOc2cc(C(F)(F)F)ccc21)Nc1cccc2c1CC(O)CC2` (centres unmarked) [Example 72, (E)-2-(7-trifluoromethyl-chroman-4-ylidene)-N-(7-hydroxy-5,6,7,8-tetrahydronaphthalen-1-yl)acetamide], the “A2 VALUE” is “A (compounds of the present invention having an A2 value of less than 100 nM are represented by A)”.

Turning to `O=C(/C=C1\CCN(C(=O)C2CCC(C(F)(F)F)CC2)c2cc(C(F)(F)F)ccc21)Nc1cccc2c1CC(O)CC2` (centres unmarked) [Example 110], the “A2 VALUE” is “A (compounds of the present invention having an A2 value of less than 100 nM are represented by A)”.

Take `O=C(/C=C1\CCN(C(=O)CC2CCCC2)c2cc(C(F)(F)F)ccc21)Nc1ccc2cccnc2c1` [Example 102, (E)-2-(7-trifluoromethyl-2,3-dihydro-1-(cyclopentylacetyl)quinolin-4(1H)-ylidene)-N-(quinolin-7-yl)acetamide]: the “A2 VALUE” is on record as “A (compounds of the present invention having an A2 value of less than 100 nM are represented by A)”.

Regarding `O=C(/C=C1\CCOc2cc(C(F)(F)F)ccc21)Nc1cccc2c1CCCC2` [Example 202, (E)-2-(7-trifluoromethyl-chroman-4-ylidene)-N-(5,6,7,8-tetrahydronaphthalen-1-yl)acetamide], the “A2 VALUE” is “A (compounds of the present invention having an A2 value of less than 100 nM are represented by A)”.

Consider `O=C(/C=C1\CCOc2cc(C(F)(F)F)ccc21)Nc1cccc2c1CC(O)CN2` (centres unmarked) [Example 122, (E)-N-(3-hydroxy-1,2,3,4-tetrahydroquinolin-5-yl)-2-(7-trifluoromethyl-chroman-4-ylidene)acetamide], for which the “A2 VALUE” is listed as “A (compounds of the present invention having an A2 value of less than 100 nM are represented by A)”.

Consider `O=C(/C=C1\CCCOc2cc(C(F)(F)F)ccc21)Nc1ccc(C(=O)N2CCOCC2)cc1` [Example 25, (E)-2-(8-trifluoromethyl-3,4-dihydrobenzo[b]oxepin-5(2H)-ylidene)-N-(4-(4-morpholinylcarbonyl)phenyl)acetamide], for which the “A2 VALUE” is reported as “B (compounds having an A2 value of 100 nM or more are represented by B)”.

`CCC(F)(F)CC(=O)N1CC/C(=C\C(=O)Nc2cccc3c2CC(O)CC3)c2ccc(C(F)(F)F)cc21` (centres unmarked) [Example 117, (E)-2-(1-(3,3-difluoropentanoyl)-7-trifluoromethyl-2,3-dihydroquinolin-4(1H)-ylidene)-N-(7-hydroxy-5,6,7,8-tetrahydronaphthalen-1-yl)acetamide]: the “A2 VALUE” is given as “A (compounds of the present invention having an A2 value of less than 100 nM are represented by A)”.

For the compound `CC(C)c1ccc2c(c1)OCC/C2=C\C(=O)Nc1cccc2c1CC(O)CC2` (centres unmarked) [Example 206, (E)-2-(7-isopropyl-chroman-4-ylidene)-N-(7-hydroxy-5,6,7,8-tetrahydronaphthalen-1-yl)acetamide], the “A2 VALUE” is “A (compounds of the present invention having an A2 value of less than 100 nM are represented by A)”.
